{
  "source": "paper PMC10793205",
  "about": "“Differential transmetallation of complexes of the anti-cancer thiosemicarbazone, Dp4e4mT: effects on anti-proliferative efficacy, redox activity, oxy-myoglobin and oxy-hemoglobin oxidation” (Chemical Science, 2023)",
  "key": {"[1]": {"details": "mice, cited from earlier work"}, "human tumor xenografts": {"tested_on": "human tumor xenografts", "details": "cited from earlier work; for efficacy against a lung tumor xenograft: in vivo after oral administration"}, "[2]": {"test": "Transmetallation kinetics with Cu(OAc)2 in aqueous solution pH 7.4 / pH 5 (UV-vis)", "assay_type": "physicochemical", "details": "for Observed pseudo first order rate constant kobs, Cu(OAc)2 in water pH 5 (only or first step): 10-fold excess of Cu(OAc)2, water pH 5, 25 °C; for Observed pseudo first order rate constant kobs, Cu(OAc)2 in water pH 7.4: 10-fold excess of Cu(OAc)2, water pH 7.4, 25 °C", "experimental": "Transmetallation studies were also conducted using UV-vis spectroscopy in aqueous solutions at pH 7.4 (phosphate buffer; 100 mM) and pH 5 (acetate buffer; 150 mM) to simulate physiological conditions, as thiosemicarbazones of this class transverse the cytosol (pH 7.4) to target lysosomes (pH 5), where transmetallation occurs.[25,26,28] Studies in aqueous solution were important to compare the results performed in DMSO above so as to interpret the biological studies and particularly the redox assays below where the same pH values were employed.\nTransmetallation of the complexes of Dp4e4mT with Cu(OAc)2 in water was possible as it is soluble in aqueous solution at pH 7.4 and 5, while FeCl3 precipitates under these conditions and cannot be assessed. […] The UV-vis spectra of all complexes in water (ca. 10 μM solutions) are compared in Fig. S17 ^† and mirror the spectra in DMSO (see Experimental section). The spectra of [Fe(Dp4e4mT)2]^+, [Co(Dp4e4mT)2]^+, and [Pd(Dp4e4mT)Cl] are similar, and display an asymmetric maximum around 393 nm with a prominent shoulder (∼450 nm). The [Ni(Dp4e4mT)2] spectrum is similarly asymmetric, although the peak intensities are reversed relative to the Fe(III), Co(III), and Pd(II) spectra (Fig. S17 ^†). […] The spectrum of [Zn(Dp4e4mT)2] is unique in this group, with a symmetrical peak at ∼400 nm.\nTable S2. Observed pseudo first order rate constants (k obs, s−1) for reactions of each Dp4e4mT complex with a 10-fold excess of Cu(OAc) 2 or FeCl 3 in DMSO or water (pH 7.4 or 5.0) at 25 °C. […]\n[Co(Dp4e4mT)2]+ No reaction No reaction No reaction No reaction […]\na Reaction could not be deciphered by UV-Vis spectroscopy; bchlorido ligand hydrolysis"}},
  "note": "Where two headings read alike, the source gives them in different places.",
  "data": [
    {"smiles": "CN(C(=S)NN=C(c1ccccn1)c1ccccn1)C1CCCCC1", "note": "[DpC, di-2-pyridylketone 4-cyclohexyl-4-methyl-3-thiosemicarbazone, reference compound]", "values": [
      {"measurement": "cardiac fibrosis", "setting": "[1]", "value": "did not induce cardiac fibrosis in mice"},
      {"measurement": "efficacy against a lung tumor xenograft", "setting": "human tumor xenografts", "value": "potent efficacy against a lung tumor xenograft"}
    ]},
    {"smiles": "CN(C)C(=S)NN=C(c1ccccn1)c1ccccn1", "note": "[Dp44mT, di-2-pyridylketone 4,4-dimethyl-3-thiosemicarbazone, reference compound]", "values": [
      {"measurement": "cardiac fibrosis", "setting": "[1]; intravenous, intensive non-optimal doses", "value": "demonstrated cardiac fibrosis"},
      {"measurement": "inhibition of human tumor xenografts", "setting": "human tumor xenografts; nude mice, 0.4 mg per kg per day", "value": "selectively inhibited a variety of human tumor xenografts in nude mice"}
    ]},
    {"smiles": "CCN(C)C([S-])=NN=C(c1ccccn1)c1ccccn1.CCN(C)C([S-])=NN=C(c1ccccn1)c1ccccn1.[Ga+3]", "note": "[[Ga(Dp4e4mT)2]^+]", "values": [
      {"measurement": "Observed pseudo first order rate constant kobs, Cu(OAc)2 in water pH 5 (only or first step)", "setting": "[2]", "value": "> 0.1", "unit": "s−1"},
      {"measurement": "Observed pseudo first order rate constant kobs, Cu(OAc)2 in water pH 7.4", "setting": "[2]", "value": "> 0.1", "unit": "s−1"},
      {"measurement": "t½, spectral change without added Cu(OAc)2", "setting": "[2]; aqueous pH 7.4, no Cu(OAc)2", "value": "~0.5", "unit": "min"},
      {"measurement": "kobs, spectral change without added Cu(OAc)2", "setting": "[2]; aqueous pH 7.4, no Cu(OAc)2, λmax shift ∼415 nm to 400 nm", "value": 0.022, "unit": "s⁻¹"}
    ]},
    {"smiles": "CCN(C)C([S-])=NN=C(c1ccccn1)c1ccccn1.CCN(C)C([S-])=NN=C(c1ccccn1)c1ccccn1.[Ni+2]", "note": "[[Ni(Dp4e4mT)2]]", "values": [
      {"measurement": "Observed pseudo first order rate constant kobs, Cu(OAc)2 in water pH 7.4", "setting": "[2]", "value": "No reaction"},
      {"measurement": "t½, faster step with Cu(OAc)2 at pH 5", "setting": "[2]; aqueous pH 5, first of two consecutive first order reactions", "value": "~4", "unit": "min"}
    ]},
    {"smiles": "CCN(C)C(=S)NN=C(c1ccccn1)c1ccccn1", "note": "[Dp4e4mT, di-2-pyridylketone-4-ethyl-4-methyl-3-thiosemicarbazone]", "values": [
      {"measurement": "cardiac fibrosis", "setting": "[1]", "value": "did not induce cardiac fibrosis in mice"},
      {"measurement": "efficacy against a lung tumor xenograft", "setting": "human tumor xenografts", "value": "potent efficacy against a lung tumor xenograft"}
    ]},
    {"smiles": "CCN(C)C([S-])=NN=C(c1ccccn1)c1ccccn1.CCN(C)C([S-])=NN=C(c1ccccn1)c1ccccn1.[Co+3]", "note": "[[Co(Dp4e4mT)2]^+]", "values": [
      {"measurement": "Observed pseudo first order rate constant kobs, Cu(OAc)2 in water pH 5 (only or first step)", "setting": "[2]", "value": "No reaction"},
      {"measurement": "Observed pseudo first order rate constant kobs, Cu(OAc)2 in water pH 7.4", "setting": "[2]", "value": "No reaction"}
    ]},
    {"smiles": "CCN(C)C([S-])=NN=C(c1ccccn1)c1ccccn1.CCN(C)C([S-])=NN=C(c1ccccn1)c1ccccn1.[Fe+3]", "note": "[[Fe(Dp4e4mT)2]^+]", "values": [
      {"measurement": "kobs, decay of the 500 nm shoulder after Cu(OAc)2", "setting": "[2]; aqueous, pH 7.4 and 5.0", "value": 0.00073, "unit": "s⁻¹"},
      {"measurement": "t½, decay of the 500 nm shoulder after Cu(OAc)2", "setting": "[2]; aqueous, pH 7.4 and 5.0", "value": "~15", "unit": "min"}
    ]},
    {"smiles": "CCN(C)C([S-])=NN=C(c1ccccn1)c1ccccn1.CCN(C)C([S-])=NN=C(c1ccccn1)c1ccccn1.[Zn+2]", "note": "[[Zn(Dp4e4mT)2]]", "values": [
      {"measurement": "Observed pseudo first order rate constant kobs, Cu(OAc)2 in water pH 5 (only or first step)", "setting": "[2]", "value": "> 0.1", "unit": "s−1"},
      {"measurement": "Observed pseudo first order rate constant kobs, Cu(OAc)2 in water pH 7.4", "setting": "[2]", "value": "> 0.1", "unit": "s−1"}
    ]}
  ]
}
